Measurements: patent US12138341B1 (Technical Institute of Physics and Chemistry, CAS, priority 2023, dated 2024)

Assay: In vivo pharmacokinetics experiment of CBD microneedle in a rat
Parameters: species or system SD rat
Settings: gavage group (oral administration), FIG. 7

C=C(C)[C@@H]1CCC(C)=C[C@H]1c1c(O)cc(CCCCC)cc1O [CBD, cannabidiol]
time drug concentration in plasma is maintained: 2 days
